In patent US4335249A, “Herbicidal diphenyl ethers, sulfides, sulfoxides and sulfones” (Rohm and Haas Company, priority 1976, dated 1982):

What was measured:
Assay type in all cases: in vivo
[1] = system: cocklebur (Xanthium pensylvanicum); experiment: Preemergence herbicidal activity, cocklebur; settings: Xanthium strumarium, pre-emergence, 336 h, 2 lb/A
How it was run: (§1)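 For postemergence testing, seedlings grow two weeks in soil flats before spraying; for preemergence testing, flats are sprayed just after sowing. Application uses acetone stock diluted in water, 50 gal/acre carrier volume, stated lb/A rate. Control recorded as mean percent killed roughly two weeks later.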

[2] = system: marigold (Tagetes spp.); experiment: Preemergence herbicidal activity, marigold; settings: pre-emergence, 336 h, 2 lb/A
How it was run: as §1

[3] = system: morningglory (Ipomoca spp.); experiment: Preemergence herbicidal activity, morningglory; settings: Ipomoea, pre-emergence, 336 h, 2 lb/A
How it was run: as §1

[4] = system: tomato (Lycopersicon esculentum); experiment: Preemergence herbicidal activity, tomato; settings: Solanum lycopersicum, pre-emergence, 336 h; Pre, 2 lb/A
How it was run: as §1

[5] = system: velvetleaf (Abutilon theophrasti); experiment: Preemergence herbicidal activity, velvetleaf; settings: Abutilon theophrasti, pre-emergence, 336 h; Pre, 2 lb/A
How it was run: as §1

[6] = system: barnyardgrass (Echinochloa crusgalli); experiment: Preemergence herbicidal activity, barnyardgrass; settings: Echinochloa crus-galli, pre-emergence, 336 h; Pre, 2 lb/A
How it was run: (§2)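 Control of the weed species is the read-out, following spray application at a given rate in lb/A. Flats of seeded soil received treatment either directly upon planting or, for postemergence, two weeks after seedlings emerged. Spray carrier was aqueous acetone at 50 gallons per acre equivalent.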

[7] = system: downybrome (Bromus tectorum); experiment: Preemergence herbicidal activity, downybrome; settings: Bromus tectorum, pre-emergence, 336 h, Pre, 2 lb/A
How it was run: as §1

[8] = system: foxtail (Setaria spp.); experiment: Preemergence herbicidal activity, foxtail; settings: Setaria, pre-emergence, 336 h; Pre, 2 lb/A
How it was run: as §1

[9] = system: yellow nutsedge (Cyperus esculentus); experiment: Preemergence herbicidal activity, yellow nutsedge; settings: Cyperus, pre-emergence, 336 h, 2 lb/A
How it was run: as §1

[10] = system: wild oats (Avena fatua); experiment: Preemergence herbicidal activity, wild oats; settings: Avena fatua, pre-emergence, 336 h, Pre, 2 lb/A; read-out: % control, Wild oat
How it was run: as §1

[11] = system: cocklebur (Xanthium pensylvanicum); experiment: Postemergence herbicidal activity, cocklebur; settings: Xanthium strumarium, post-emergence, 336 h, 2 lb/A
How it was run: as §1

[12] = system: marigold (Tagetes spp.); experiment: Postemergence herbicidal activity, marigold; settings: post-emergence, 336 h, 2 lb/A
How it was run: as §1

[13] = system: morningglory (Ipomoca spp.); experiment: Postemergence herbicidal activity, morningglory; settings: Ipomoea, post-emergence, 336 h, 2 lb/A
How it was run: as §1

[14] = system: tomato (Lycopersicon esculentum); experiment: Postemergence herbicidal activity, tomato; settings: Solanum lycopersicum, post-emergence, 336 h, Post, 2 lb/A
How it was run: as §1

[15] = system: velvetleaf (Abutilon theophrasti); experiment: Postemergence herbicidal activity, velvetleaf; settings: Abutilon theophrasti, post-emergence, 336 h, 2 lb/A
How it was run: as §2

[16] = system: barnyardgrass (Echinochloa crusgalli); experiment: Postemergence herbicidal activity, barnyardgrass; settings: Echinochloa crus-galli, post-emergence, 336 h; Post, 2 lb/A
How it was run: as §2

[17] = system: downybrome (Bromus tectorum); experiment: Postemergence herbicidal activity, downybrome; settings: Bromus tectorum, post-emergence, 336 h, Post, 2 lb/A
How it was run: as §1

[18] = system: foxtail (Setaria spp.); experiment: Postemergence herbicidal activity, foxtail; settings: Setaria, post-emergence, 336 h, Post, 2 lb/A
How it was run: as §1

[19] = system: yellow nutsedge (Cyperus esculentus); experiment: Postemergence herbicidal activity, yellow nutsedge; settings: Cyperus, post-emergence, 336 h, 2 lb/A
How it was run: as §1

[20] = system: wild oats (Avena fatua); experiment: Postemergence herbicidal activity, wild oats; settings: Avena fatua, post-emergence, 336 h, Post, 2 lb/A; read-out: % control, Wild oat
How it was run: as §1

Compound	pest or weed control at 2241.7 g/ha [1] [%]	pest or weed control at 2241.7 g/ha [2] [%]	pest or weed control at 2241.7 g/ha [3] [%]	pest or weed control at 2241.7 g/ha [4] [%]	pest or weed control at 2241.7 g/ha [5] [%]	pest or weed control at 2241.7 g/ha [6] [%]	pest or weed control at 2241.7 g/ha [7] [%]	pest or weed control at 2241.7 g/ha [8] [%]	pest or weed control at 2241.7 g/ha [9] [%]	pest or weed control at 2241.7 g/ha [10] [%]	pest or weed control at 2241.7 g/ha [11] [%]	pest or weed control at 2241.7 g/ha [12] [%]	pest or weed control at 2241.7 g/ha [13] [%]	pest or weed control at 2241.7 g/ha [14] [%]	pest or weed control at 2241.7 g/ha [15] [%]	pest or weed control at 2241.7 g/ha [16] [%]	pest or weed control at 2241.7 g/ha [17] [%]	pest or weed control at 2241.7 g/ha [18] [%]	pest or weed control at 2241.7 g/ha [19] [%]	pest or weed control at 2241.7 g/ha [20] [%]
CCOC(=O)CCC(C)Oc1ccc(Oc2ccc(C(F)(F)F)cc2)cc1 (centres unmarked) [Example 39]	0	0	0	0	0	99	60	99	0	50	60	0	40	20	0	100	100	100	0	100
CCOC(=O)C(C)Oc1ccc(Oc2ccc(C(F)(F)F)cc2Cl)cc1Cl (centres unmarked) [Example 7]	0	0	0	0	0	0	0	90	0	0	80	20	100	80	80	10	0	40	0	20
CCOC(=O)C(C)Oc1ccc(Oc2ccc(C(F)(F)F)cc2)cc1 (centres unmarked) [Example 27]	0	0	0	0	0	100	99	100	0	99	70	100	95	60	40	100	100	100	0	100
CCOC(=O)C(C)Oc1cccc(Oc2ccc(C(F)(F)F)cc2Cl)c1 (centres unmarked) [Example 2]	0	90	0	100	100	30	0	100	0	20	90	90	100	100	100	60	40	50	0	50
